Assay results: patent US20210198277A1, “AMINE-SUBSTITUTED ARYL OR HETEROARYL COMPOUNDS” (Epizyme, Inc., priority 2016, published 2021)

The molecules below were run against T1, human EHMT2 913-1193 (Homo sapiens, UniProt Q96KQ7) (assay: EHMT2 enzyme assay on histone peptide substrate (EHMT2 PEP)). Conditions: Table VII; read-out: EHMT2 PEP IC50.
T1 construct: recombinant purified human EHMT2 913-1193, Viva; purchased Viva
T1 sequence (Q96KQ7 913-1193): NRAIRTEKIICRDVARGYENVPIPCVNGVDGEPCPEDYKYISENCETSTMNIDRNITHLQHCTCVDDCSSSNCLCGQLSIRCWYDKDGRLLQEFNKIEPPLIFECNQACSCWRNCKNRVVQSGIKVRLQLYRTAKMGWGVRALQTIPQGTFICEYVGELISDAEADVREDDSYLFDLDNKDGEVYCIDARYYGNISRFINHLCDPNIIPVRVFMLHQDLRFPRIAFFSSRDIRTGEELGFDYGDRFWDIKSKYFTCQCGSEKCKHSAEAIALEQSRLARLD
Assay type: biochemical
How it was run: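 Radiometric methyltransferase read-out: ^3H-methyl transfer from ^3H-SAM onto biotinylated histone peptide, captured on streptavidin Flashplates after 60 min reaction at room temperature. Enzyme 0.031 nM, preincubated 30 min with inhibitor; buffer 20 mM Bicine pH 7.5 with 1 mM TCEP; top compound concentration 50 μM final, 2% DMSO.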

| IC50 | SMILES |
| --- | --- |
| 0.1 to 1 µM | CNc1cc(C)nc(Nc2ccc(OC)c(OC[C@@H](O)CN3CCCC3)c2)n1 [Compound 1044] |
| < 0.1 µM | CNc1cc(C)nc(Nc2ccc(OC)c(OC[C@H](O)CN3CCCC3)c2)n1 [Compound 1045] |
| 1 to 10 µM | CNc1ccnc(Nc2ccc(OC)c(OC[C@@H](O)CN3CCC3)c2)n1 [Compound 1046] |
| < 0.1 µM | CNc1cc(C2CCOCC2)c2cc(OC)c(OC[C@H](O)CN3CCC3)cc2n1 [Compound 1108] |
| 1 to 10 µM | CNc1cc(C)nc(Nc2ccc(OC)c(CNCCNC3CCC3)c2)n1 [Compound 1109] |
| 0.1 to 1 µM | CNc1cc(C)nc(Nc2cnc(OC)c(CNCCN3CCC3)c2)n1 [Compound 1110] |
| < 0.1 µM | CNc1cc(C2CCOCC2)c2cc(OC)c(CNCCN3CCCC3)cc2n1 [Compound 1111] |
| 0.1 to 1 µM | CNc1cc(C)nc(Nc2ccc(OC)c(OC[C@H](O)CN(C)C)c2)n1 [Compound 1112] |
| 0.1 to 1 µM | CCN(C)C[C@@H](O)COc1cc(Nc2nc(C)cc(NC)n2)ccc1OC [Compound 1113] |
| > 10 µM | CNc1cc(C)nc(Nc2ccc(C)c(C(=O)NCc3ccon3)c2)n1 [Compound 1114] |

Same assay, conditions: recombinant human EHMT2 913-1193, histone H3 1-15 peptide, balanced conditions; read-out: EHMT2 PEP (IC50 μM)

| IC50 | SMILES |
| --- | --- |
| < 0.1 µM | CNc1nc(C2CCN(C(C)C)CC2)c2cc(OC)c(OCCCN3CCCC3)cc2n1 [Compound 530] |
| < 0.1 µM | CNc1nc(C2CCN(C)CC2)c2cc(OC)c(OCCCN3CC4CC4C3)cc2n1 (stereo not drawn) [Compound 532] |

Further lines, the molecule ahead of its results:

| SMILES | IC50 |
| --- | --- |
| CNc1nc(C2CCN(C(C)C)CC2)c2cc(OC)c(OC[C@@H]3CCN(C4CC4)C3)cc2n1 [Compound 526] | < 0.1 µM |
| COc1cc2c(C3CCN(C)CC3)nc(N3CCCC3)nc2cc1OCCCN1CCCC1 [Compound 527] | < 0.1 µM |
| COc1cc2c(C3CCN(C)CC3)nc(N3CCC(F)(F)CC3)nc2cc1OCCCN1CCCC1 [Compound 528] | 0.1 to 1 µM |
| COc1cc2c(C3CCN(C)CC3)nc(NC3CCCC3)nc2cc1OCCCN1CCCC1 [Compound 529] | < 0.1 µM |
| CNc1nc(C2CCN(CCO)CC2)c2cc(OC)c(OCCCN3CCCC3)cc2n1 [Compound 533] | < 0.1 µM |
| CNc1nc(C2CC(C)(C)NC(C)(C)C2)c2cc(OC)c(OCCCN3CCCC3)cc2n1 [Compound 534] | 1 to 10 µM |
| CNc1cc(C2CCN(C)CC2)c2cc(OC)c(OCCCN3CCCC3)cc2n1 [Compound 535] | < 0.1 µM |
| COc1cc2c(C3CCN(C)CC3)cc(C)nc2cc1OCCCN1CCCC1 [Compound 536] | < 0.1 µM |
| CCCCNc1nccc(NC)n1 [Compound 543, N^2-butyl-N^4-methylpyrimidine-2,4-diamine] | > 10 µM |
